For data set [1] the following is noted: 298.15 K, 101.33 kPa, Liquid.
Data set [2] is described as follows: refractive index (Na D-line) (dimensionless). Conditions: 298.15 K; 101.33 kPa; Liquid; Standard Abbe refractometry.

Structures are written as SMILES. Numbers after ± are expanded uncertainties.

As a reminder, the mass density is mass per unit of volume. As usually defined, the refractive index is the speed of light in vacuum divided by its phase velocity in the sample.

For the compound `c1ccsc1` [thiophene], the mass density in data set [1] came out at 1058.59 ± 0.28 kg/m3. Further, the refractive index in data set [2] is on record as 1.5253 ± 0.00068.

Take `CCCCCC` [hexane]: in data set [1], the mass density was 655.06 ± 1.1 kg/m3. Also, the refractive index in data set [2] was found to be 1.37287 ± 0.0007.

For the compound `CCCCCCCCCCCC` [dodecane], the mass density in data set [1] was 745.32 ± 0.91 kg/m3. In data set [2], the refractive index is reported as 1.42011 ± 0.0007.

For the compound `CCOS(=O)(=O)[O-].CCn1cc[n+](C)c1` [1-ethyl-3-methylimidazolium ethyl sulfate], the mass density in data set [1] (Vibrating tube method) was 1238.17 ± 8.3 kg/m3. Moreover, in data set [2], the refractive index was found to be 1.47903 ± 0.0012.

Regarding `CCCCCCC` [heptane], the mass density in data set [1] was 679.47 ± 0.66 kg/m3. Besides, the refractive index in data set [2] stood at 1.38517 ± 0.00068.

Consider `CCCCCCCCCCCCCCCC` [hexadecane], for which the mass density in data set [1] stood at 771.15 ± 0.85 kg/m3. Further, the refractive index in data set [2] stood at 1.43232 ± 0.0007.
